In ChEMBL document CHEMBL3102826 (J Med Chem, 2013):
Values belong to the molecule of their own block, whether it stands above or below them. The source made the active and inactive calls. The calls are words filed in the database; no cut-off is given here.

Assays:
[1] = molecular target: T1, Dual specificity tyrosine-phosphorylation-regulated kinase 1A (Rattus norvegicus, UniProt Q63470); experiment: Inhibition of rat recombinant 6xHis-tagged DYRK1A catalytic domain (1 to 502) expressed in Escherichia coli BL21 (DE3) using N-terminal fluorescein coupled KISGRLSPIMTEQ as substrate after 30 mins by HPLC analysis in presence of 50 uM ATP
[2] = molecular target: T1, Dual specificity tyrosine-phosphorylation-regulated kinase 1A; experiment: Inhibition of rat recombinant 6xHis-tagged DYRK1A catalytic domain (1 to 502) expressed in Escherichia coli BL21 (DE3) using N-terminal fluorescein coupled KISGRLSPIMTEQ as substrate after 30 mins by HPLC analysis in presence of 1 mM ATP
[3] = Cytotoxicity against human KB cells assessed as growth inhibition at 10^-6 M after 72 hrs by resazurin dye-based fluorimetric analysis relative to control; type: cell-based; conditions: read-out: GI
[4] = Cytotoxicity against human KB cells assessed as growth inhibition at 10^-5 M after 72 hrs by resazurin dye-based fluorimetric analysis relative to control; type: cell-based; conditions: read-out: GI
[5] = molecular target: High affinity nerve growth factor receptor (Homo sapiens) (UniProt P04629); experiment: Inhibition of human TRKA at 5 x 10^-8 M
Sequence of High affinity nerve growth factor receptor (Homo sapiens) (P04629 33-796 limits assumed): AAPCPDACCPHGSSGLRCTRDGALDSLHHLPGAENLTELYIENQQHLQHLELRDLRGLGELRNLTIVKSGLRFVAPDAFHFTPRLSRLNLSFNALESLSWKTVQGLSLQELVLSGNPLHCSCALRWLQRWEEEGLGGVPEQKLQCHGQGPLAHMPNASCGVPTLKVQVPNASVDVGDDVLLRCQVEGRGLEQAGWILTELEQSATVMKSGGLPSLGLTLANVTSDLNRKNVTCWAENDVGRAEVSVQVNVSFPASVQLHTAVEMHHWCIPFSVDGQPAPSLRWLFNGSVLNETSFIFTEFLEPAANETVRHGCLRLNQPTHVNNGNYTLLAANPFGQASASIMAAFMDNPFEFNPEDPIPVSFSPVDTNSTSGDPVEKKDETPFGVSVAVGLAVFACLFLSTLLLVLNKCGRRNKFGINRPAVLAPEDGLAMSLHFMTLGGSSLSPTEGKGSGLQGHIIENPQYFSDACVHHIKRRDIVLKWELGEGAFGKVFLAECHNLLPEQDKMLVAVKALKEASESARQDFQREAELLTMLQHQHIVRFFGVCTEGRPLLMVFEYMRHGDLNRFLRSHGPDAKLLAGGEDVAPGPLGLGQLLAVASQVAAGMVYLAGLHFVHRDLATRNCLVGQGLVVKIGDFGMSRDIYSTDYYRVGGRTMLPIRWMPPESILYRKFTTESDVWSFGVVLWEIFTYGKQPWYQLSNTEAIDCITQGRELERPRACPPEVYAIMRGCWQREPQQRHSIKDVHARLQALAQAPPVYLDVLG

[6] = molecular target: Serine/threonine-protein kinase pim-1 (Homo sapiens) (UniProt P11309); experiment: Inhibition of human Pim1 kinase at 5 x 10^-8 M
Sequence of Serine/threonine-protein kinase pim-1 (Homo sapiens) (P11309 whole entry, looked up): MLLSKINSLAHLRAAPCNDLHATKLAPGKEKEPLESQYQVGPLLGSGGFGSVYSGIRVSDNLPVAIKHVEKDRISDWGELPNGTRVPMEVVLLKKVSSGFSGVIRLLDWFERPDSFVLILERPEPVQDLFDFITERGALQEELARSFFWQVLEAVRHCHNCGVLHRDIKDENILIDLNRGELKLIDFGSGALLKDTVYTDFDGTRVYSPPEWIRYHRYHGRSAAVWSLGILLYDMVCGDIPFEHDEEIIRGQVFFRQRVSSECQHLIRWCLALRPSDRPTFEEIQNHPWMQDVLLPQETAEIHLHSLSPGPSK

[7] = molecular target: Glycogen synthase kinase-3 beta (Homo sapiens) (UniProt P49841); experiment: Inhibition of human GSK-3beta at 5 x 10^-8 M
Sequence of Glycogen synthase kinase-3 beta (Homo sapiens) (P49841 whole entry, looked up): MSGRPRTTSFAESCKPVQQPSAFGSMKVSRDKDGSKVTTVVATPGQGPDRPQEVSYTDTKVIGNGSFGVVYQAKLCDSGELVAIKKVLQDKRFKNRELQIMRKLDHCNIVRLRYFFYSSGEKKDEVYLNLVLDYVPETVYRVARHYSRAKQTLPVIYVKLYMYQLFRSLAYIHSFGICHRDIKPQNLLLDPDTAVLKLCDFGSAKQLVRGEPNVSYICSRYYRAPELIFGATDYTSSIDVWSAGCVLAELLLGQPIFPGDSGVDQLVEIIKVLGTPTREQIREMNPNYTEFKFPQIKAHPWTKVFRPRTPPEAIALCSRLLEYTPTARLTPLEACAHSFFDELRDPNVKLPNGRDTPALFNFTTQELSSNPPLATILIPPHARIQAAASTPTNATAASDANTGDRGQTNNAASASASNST

[8] = molecular target: Mitogen-activated protein kinase 1 (Homo sapiens) (UniProt P28482); experiment: Inhibition of human ERK2 at 5 x 10^-8 M
Sequence of Mitogen-activated protein kinase 1 (Homo sapiens) (P28482 whole entry, the tested form may be a part): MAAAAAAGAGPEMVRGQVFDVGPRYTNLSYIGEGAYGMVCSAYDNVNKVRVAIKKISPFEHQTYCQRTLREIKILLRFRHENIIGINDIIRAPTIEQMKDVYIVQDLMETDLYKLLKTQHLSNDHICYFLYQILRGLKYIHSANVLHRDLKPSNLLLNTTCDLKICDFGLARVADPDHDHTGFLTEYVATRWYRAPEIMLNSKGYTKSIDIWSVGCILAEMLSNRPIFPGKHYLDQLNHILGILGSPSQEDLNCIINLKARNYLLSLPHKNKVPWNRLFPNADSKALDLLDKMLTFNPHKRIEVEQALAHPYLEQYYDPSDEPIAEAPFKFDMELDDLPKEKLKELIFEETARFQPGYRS

[9] = molecular target: T1, Dual specificity tyrosine-phosphorylation-regulated kinase 1A; experiment: Competitive inhibition of rat recombinant 6xHis-tagged DYRK1A catalytic domain (1 to 502) expressed in Escherichia coli BL21 (DE3) using ATP as substrate by Michaelis-Menten plot analysis
[10] = molecular target: T2, Dual specificity tyrosine-phosphorylation-regulated kinase 1A (Homo sapiens, UniProt Q13627); experiment: Inhibition of DYRK1A (unknown origin) by HPLC analysis
[11] = molecular target: T2, Dual specificity tyrosine-phosphorylation-regulated kinase 1A; experiment: Inhibition of human GST-fused DYRK1A expressed in Escherichia coli using KISGRLSPIMTEQ as substrate
[12] = molecular target: RAC-alpha serine/threonine-protein kinase (Homo sapiens) (UniProt P31749); experiment: Inhibition of human AKT1 at 5 x 10^-8 M
Sequence of RAC-alpha serine/threonine-protein kinase (Homo sapiens) (P31749 whole entry): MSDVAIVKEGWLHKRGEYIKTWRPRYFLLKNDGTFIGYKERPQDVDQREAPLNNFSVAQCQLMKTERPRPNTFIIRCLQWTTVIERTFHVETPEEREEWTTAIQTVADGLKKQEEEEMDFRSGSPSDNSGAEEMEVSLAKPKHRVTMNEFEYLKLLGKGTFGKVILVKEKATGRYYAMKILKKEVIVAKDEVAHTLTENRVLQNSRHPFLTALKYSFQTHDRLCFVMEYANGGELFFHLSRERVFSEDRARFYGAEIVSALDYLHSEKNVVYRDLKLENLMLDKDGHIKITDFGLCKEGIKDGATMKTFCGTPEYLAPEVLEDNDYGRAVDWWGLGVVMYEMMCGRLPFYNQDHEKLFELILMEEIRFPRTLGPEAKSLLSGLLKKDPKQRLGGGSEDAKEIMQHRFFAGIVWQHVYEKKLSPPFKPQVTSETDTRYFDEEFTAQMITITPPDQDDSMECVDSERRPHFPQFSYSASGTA

[13] = molecular target: T3, Dual specificity tyrosine-phosphorylation-regulated kinase 3 (Homo sapiens) (UniProt O43781); experiment: Inhibition of human DYRK3 at 5 x 10^-8 M relative to control
T3 sequence (whole entry): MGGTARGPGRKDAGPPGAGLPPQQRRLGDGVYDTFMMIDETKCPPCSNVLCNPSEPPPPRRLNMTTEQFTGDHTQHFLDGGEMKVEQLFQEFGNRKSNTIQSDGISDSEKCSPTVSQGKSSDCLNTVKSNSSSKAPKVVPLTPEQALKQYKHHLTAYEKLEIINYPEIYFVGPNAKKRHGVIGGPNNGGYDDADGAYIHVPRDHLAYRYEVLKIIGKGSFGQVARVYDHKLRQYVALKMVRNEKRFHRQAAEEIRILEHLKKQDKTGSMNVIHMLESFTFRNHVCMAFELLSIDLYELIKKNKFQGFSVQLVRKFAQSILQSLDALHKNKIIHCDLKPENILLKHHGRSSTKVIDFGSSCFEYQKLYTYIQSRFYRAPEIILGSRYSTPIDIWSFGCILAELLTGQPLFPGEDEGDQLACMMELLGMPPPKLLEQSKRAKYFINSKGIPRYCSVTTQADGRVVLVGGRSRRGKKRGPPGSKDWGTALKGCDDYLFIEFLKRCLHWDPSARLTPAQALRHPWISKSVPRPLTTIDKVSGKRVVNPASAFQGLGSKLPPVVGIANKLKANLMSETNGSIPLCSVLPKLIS

[14] = molecular target: T4, Dual specificity tyrosine-phosphorylation-regulated kinase 2 (Homo sapiens) (UniProt Q92630); experiment: Inhibition of human DYRK2 at 5 x 10^-8 M relative to control
T4 sequence (whole entry): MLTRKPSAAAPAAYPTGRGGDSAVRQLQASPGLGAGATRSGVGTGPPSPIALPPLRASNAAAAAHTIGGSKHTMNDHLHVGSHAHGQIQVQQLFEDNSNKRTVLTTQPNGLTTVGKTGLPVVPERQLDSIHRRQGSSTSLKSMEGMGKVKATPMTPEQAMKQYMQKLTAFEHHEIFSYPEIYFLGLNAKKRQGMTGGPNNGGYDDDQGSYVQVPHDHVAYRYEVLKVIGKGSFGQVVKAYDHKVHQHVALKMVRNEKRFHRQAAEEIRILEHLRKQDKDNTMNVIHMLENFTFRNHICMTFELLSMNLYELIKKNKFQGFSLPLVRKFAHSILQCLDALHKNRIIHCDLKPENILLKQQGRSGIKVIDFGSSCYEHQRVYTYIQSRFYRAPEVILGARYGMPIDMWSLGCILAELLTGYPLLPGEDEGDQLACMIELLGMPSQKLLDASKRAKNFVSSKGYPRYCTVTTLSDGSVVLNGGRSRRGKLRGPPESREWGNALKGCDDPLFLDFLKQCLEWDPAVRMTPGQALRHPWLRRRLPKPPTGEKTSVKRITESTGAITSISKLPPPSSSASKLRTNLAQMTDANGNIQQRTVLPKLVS

[15] = molecular target: CDK2/Cyclin A2 (Homo sapiens) (UniProt P24941+P20248); experiment: Inhibition of human CDK2/cyclin A at 5 x 10^-8 M relative to control; type: protein-complex assay
[16] = molecular target: Casein kinase I isoform alpha (Homo sapiens) (UniProt P48729); experiment: Inhibition of human CK1alpha at 5 x 10^-8 M relative to control
Sequence of Casein kinase I isoform alpha (Homo sapiens) (P48729 2-337 limits assumed): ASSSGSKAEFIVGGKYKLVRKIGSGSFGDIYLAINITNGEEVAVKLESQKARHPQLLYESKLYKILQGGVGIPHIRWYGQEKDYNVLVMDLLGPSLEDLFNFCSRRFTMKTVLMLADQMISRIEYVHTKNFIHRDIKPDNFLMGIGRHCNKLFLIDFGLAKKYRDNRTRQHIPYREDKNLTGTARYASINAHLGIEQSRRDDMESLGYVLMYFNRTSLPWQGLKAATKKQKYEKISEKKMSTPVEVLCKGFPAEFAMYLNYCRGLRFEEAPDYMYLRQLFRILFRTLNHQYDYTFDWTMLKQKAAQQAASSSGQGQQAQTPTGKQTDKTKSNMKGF

- IC50 [1]: 0.41 µM
Compound: c1ccc(-c2cnc3[nH]cc(-c4ccccc4)c3c2)cc1

- IC50 [1]: 57.8 µM
Compound: COc1ccc(-c2cnc3[nH]cc(-c4ccc(OC)c(OC)c4)c3c2)cc1OC

- IC50 [2]: 0.043 µM
- IC50 [1]: 0.0231 µM
- inhibition [5]: inactive
- inhibition [6]: inactive
- inhibition [7]: inactive
- inhibition [8]: inactive
- Ki [9]: 0.0023 µM
Compound: Oc1ccc(-c2cnc3[nH]cc(-c4ccc(O)cc4)c3c2)cc1
- inhibition at 72 h, 1 µM [3]: 51%
- inhibition at 72 h, 10 µM [4]: 95%

- IC50 [1]: 7.49 µM
Compound: COc1cccc(-c2cnc3[nH]cc(-c4ccccc4)c3c2)c1

- IC50 [1]: 0.15 µM
Compound: Oc1ccc(-c2cnc3[nH]cc(-c4ccccc4)c3c2)c(O)c1

- IC50 [10]: 27.4 µM
Compound: Oc1ccc(-c2cc3c(-c4ccccc4)c[nH]c3cn2)cc1

- IC50 [2]: 0.0055 µM
- IC50 [1]: 0.003 µM
- inhibition [5]: inactive
- inhibition [6]: inactive
- inhibition [7]: inactive
- inhibition [8]: inactive
- Ki [9]: < 0.002 µM
Compound: Oc1ccc(-c2c[nH]c3ncc(-c4ccc(O)c(O)c4)cc23)cc1
- inhibition at 72 h, 1 µM [3]: 56%
- inhibition at 72 h, 10 µM [4]: 86%

- IC50 [1]: 0.105 µM
Compound: Oc1cccc(-c2cnc3[nH]cc(-c4cccc(O)c4)c3c2)c1

- IC50 [1]: 0.96 µM
Compound: COc1ccccc1-c1cnc2[nH]cc(-c3ccccc3)c2c1

- IC50 [1]: 0.0391 µM
- Ki [9]: 0.0121 µM
Compound: Oc1ccc(O)c(-c2cnc3[nH]cc(-c4ccc(O)c(O)c4)c3c2)c1

- IC50 [1]: 2.7 µM
Compound: Oc1cccc(-c2cnc3[nH]cc(-c4ccccc4)c3c2)c1

Compound: O=C(O[C@@H]1Cc2c(O)cc(O)cc2O[C@@H]1c1cc(O)c(O)c(O)c1)c1cc(O)c(O)c(O)c1 [EPIGALOCATECHIN GALLATE]
- IC50 [11]: 0.33 µM

- IC50 [1]: 2.88 µM
Compound: COc1ccc(-c2cnc3[nH]cc(-c4ccc(OC)c(OC)c4)c3c2)c(OC)c1

- IC50 [1]: 1.17 µM
Compound: COc1ccc(-c2cnc3[nH]cc(-c4ccccc4)c3c2)c(OC)c1

- IC50 [10]: 17 µM
Compound: COc1ccc(-c2cc3c(-c4ccccc4)c[nH]c3cn2)cc1

- IC50 [1]: 0.16 µM
Compound: Oc1ccc(-c2cnc3[nH]cc(-c4ccccc4)c3c2)cc1O

- IC50 [1]: 1.67 µM
Compound: COc1ccc(OC)c(-c2cnc3[nH]cc(-c4ccc(OC)c(OC)c4)c3c2)c1

- IC50 [1]: 0.96 µM
Compound: COc1ccc(-c2cnc3[nH]cc(-c4ccccc4)c3c2)cc1

- IC50 [1]: 0.0143 µM
- Ki [9]: 0.0076 µM
Compound: Oc1ccc(-c2cnc3[nH]cc(-c4ccc(O)c(O)c4)c3c2)c(O)c1
- inhibition at 72 h, 1 µM [3]: 0%
- inhibition at 72 h, 10 µM [4]: 9%

- IC50 [1]: 0.33 µM
Compound: Oc1ccc(-c2cnc3[nH]cc(-c4ccccc4)c3c2)cc1

- IC50 [1]: 14.6 µM
Compound: COc1cccc(-c2cnc3[nH]cc(-c4cccc(OC)c4)c3c2)c1

- IC50 [1]: 3.08 µM
Compound: COc1ccc(-c2cnc3[nH]cc(-c4ccccc4)c3c2)cc1OC

- IC50 [1]: 0.46 µM
Compound: COc1ccc(-c2c[nH]c3ncc(-c4ccc(OC)c(OC)c4)cc23)cc1

- IC50 [1]: 0.28 µM
Compound: COc1ccc(-c2c[nH]c3ncc(-c4ccc(OC)cc4OC)cc23)cc1

- IC50 [1]: 1.74 µM
Compound: COc1ccc(-c2cnc3[nH]cc(-c4ccc(OC)cc4)c3c2)cc1

- IC50 [1]: 3.59 µM
Compound: Oc1ccccc1-c1cnc2[nH]cc(-c3ccccc3)c2c1

- IC50 [2]: 0.032 µM
- IC50 [1]: 0.0124 µM
- inhibition [12]: Active
- Ki [9]: 0.0101 µM
Compound: Oc1ccc(-c2cnc3[nH]cc(-c4ccc(O)c(O)c4)c3c2)cc1O
- inhibition at 72 h, 1 µM [3]: 2%
- inhibition at 72 h, 10 µM [4]: 11%

- IC50 [2]: 0.048 µM
- IC50 [1]: 0.0117 µM
- inhibition [13]: < 50%
- inhibition [14]: < 50%
- inhibition [15]: < 50%
- inhibition [16]: < 50%
- inhibition [5]: inactive
- inhibition [6]: inactive
- inhibition [7]: inactive
- inhibition [8]: inactive
- Ki [9]: 0.0055 µM
Compound: Oc1ccc(-c2c[nH]c3ncc(-c4ccc(O)cc4O)cc23)cc1
- inhibition at 72 h, 1 µM [3]: 21%
- inhibition at 72 h, 10 µM [4]: 83%
